# Results taken from ChEMBL document CHEMBL5465560, “Selectivity Literature for EUbOPEN Chemogenomic Library” (2024).
# What was measured:
# [1] = molecular target: T1, Serine/threonine-protein kinase 4 (Homo sapiens) (UniProt Q13043); experiment: Selectivity interaction (Kinase panel (DSF assay)) EUB0001558a STK4
# T1 sequence (whole entry): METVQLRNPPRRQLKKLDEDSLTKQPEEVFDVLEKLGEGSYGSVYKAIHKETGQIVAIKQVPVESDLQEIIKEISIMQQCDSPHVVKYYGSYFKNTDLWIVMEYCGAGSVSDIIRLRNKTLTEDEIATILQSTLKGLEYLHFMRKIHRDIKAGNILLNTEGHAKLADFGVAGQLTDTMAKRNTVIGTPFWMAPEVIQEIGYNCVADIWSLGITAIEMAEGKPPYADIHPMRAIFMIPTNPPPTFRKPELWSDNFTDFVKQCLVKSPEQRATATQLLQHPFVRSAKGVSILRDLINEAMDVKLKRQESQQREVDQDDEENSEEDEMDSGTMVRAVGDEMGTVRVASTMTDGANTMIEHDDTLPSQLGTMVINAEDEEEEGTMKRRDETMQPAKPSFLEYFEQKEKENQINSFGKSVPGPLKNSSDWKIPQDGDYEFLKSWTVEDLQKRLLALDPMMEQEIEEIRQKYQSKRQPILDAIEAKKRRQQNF
# [2] = molecular target: Angiopoietin-1 receptor (Homo sapiens) (UniProt Q02763); experiment: Selectivity interaction (KinomeScan (DiscoverX)) EUB0000229b TEK; conditions: at 10 µM
# [3] = molecular target: T2, Serine/threonine-protein kinase BRSK1 (Homo sapiens) (UniProt Q8TDC3); experiment: Selectivity interaction (KinomeScan (DiscoverX)) EUB0000229b BRSK1; conditions: at 10 µM
# T2 sequence (whole entry): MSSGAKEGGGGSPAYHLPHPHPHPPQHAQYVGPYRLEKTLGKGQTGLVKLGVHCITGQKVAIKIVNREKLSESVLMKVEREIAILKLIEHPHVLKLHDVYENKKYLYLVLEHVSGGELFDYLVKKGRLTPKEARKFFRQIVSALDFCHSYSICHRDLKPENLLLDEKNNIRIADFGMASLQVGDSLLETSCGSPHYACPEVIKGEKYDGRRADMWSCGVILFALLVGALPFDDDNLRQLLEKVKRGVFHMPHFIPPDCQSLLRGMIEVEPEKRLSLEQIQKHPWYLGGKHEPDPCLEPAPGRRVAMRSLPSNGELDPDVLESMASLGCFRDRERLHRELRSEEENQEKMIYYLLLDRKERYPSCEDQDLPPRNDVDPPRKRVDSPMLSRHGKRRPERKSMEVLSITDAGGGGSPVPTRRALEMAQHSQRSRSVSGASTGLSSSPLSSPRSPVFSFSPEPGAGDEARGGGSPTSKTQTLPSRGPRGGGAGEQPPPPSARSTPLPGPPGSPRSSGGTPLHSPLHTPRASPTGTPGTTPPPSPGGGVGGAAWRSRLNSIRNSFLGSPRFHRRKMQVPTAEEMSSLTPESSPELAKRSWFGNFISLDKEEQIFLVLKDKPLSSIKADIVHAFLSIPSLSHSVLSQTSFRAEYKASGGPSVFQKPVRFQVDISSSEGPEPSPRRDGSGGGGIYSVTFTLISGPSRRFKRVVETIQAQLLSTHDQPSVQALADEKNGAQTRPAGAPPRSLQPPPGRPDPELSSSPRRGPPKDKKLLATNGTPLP
# [4] = molecular target: Mitogen-activated protein kinase kinase kinase kinase 5 (Homo sapiens) (UniProt Q9Y4K4); experiment: Selectivity interaction (KinomeScan (DiscoverX)) EUB0000655a MAP4K5; conditions: at 10 µM
# [5] = molecular target: Interleukin-1 receptor-associated kinase 1 (Homo sapiens) (UniProt P51617); experiment: Selectivity interaction (Kinase panel (KiNativ target engagement assay in Jurkat cells)) EUB0001635a IRAK1; format: cell-based; conditions: Selectivity number of off-targets 0.0, Selectivity number of targets 233.0, Source Knowledge https://www.sciencedirect.com/science/article/pii/S2451945619300674?via%3Dihub, at 1 µM
# [6] = molecular target: Serine/threonine-protein kinase pim-3 (Homo sapiens) (UniProt Q86V86); experiment: Selectivity interaction (KinomeScan (DiscoverX)) EUB0000666a PIM3; conditions: at 10 µM
# [7] = molecular target: T3, cGMP-dependent protein kinase 1 (Homo sapiens) (UniProt Q13976); experiment: Selectivity interaction (Kinase panel (Z-LYTE Assay)) EUB0001632a PRKG1; conditions: at 10 µM
# T3 sequence (whole entry): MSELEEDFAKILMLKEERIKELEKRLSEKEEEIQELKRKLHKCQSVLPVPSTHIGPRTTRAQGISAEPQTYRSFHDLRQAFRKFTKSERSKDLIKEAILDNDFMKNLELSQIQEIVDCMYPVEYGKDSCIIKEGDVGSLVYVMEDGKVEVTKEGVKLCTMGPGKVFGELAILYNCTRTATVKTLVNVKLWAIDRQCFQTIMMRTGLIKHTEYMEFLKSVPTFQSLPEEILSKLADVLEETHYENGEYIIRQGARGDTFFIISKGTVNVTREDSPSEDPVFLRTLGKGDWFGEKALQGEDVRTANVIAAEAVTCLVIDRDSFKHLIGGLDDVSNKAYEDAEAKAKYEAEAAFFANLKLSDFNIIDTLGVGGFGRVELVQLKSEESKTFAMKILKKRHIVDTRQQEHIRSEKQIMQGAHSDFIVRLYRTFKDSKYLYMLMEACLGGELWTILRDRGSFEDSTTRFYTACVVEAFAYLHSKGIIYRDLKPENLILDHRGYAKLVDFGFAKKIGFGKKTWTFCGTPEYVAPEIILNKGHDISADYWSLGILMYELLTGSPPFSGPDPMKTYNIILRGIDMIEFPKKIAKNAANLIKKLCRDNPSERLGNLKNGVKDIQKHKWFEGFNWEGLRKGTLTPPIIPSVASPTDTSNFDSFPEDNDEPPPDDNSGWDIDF
# [8] = molecular target: T4, Protein-tyrosine kinase 6 (Homo sapiens, UniProt Q13882); experiment: Selectivity interaction (Kinase panel (Invitrogen)) EUB0000639a PTK6; conditions: at 200 nM
# [9] = molecular target: Activin receptor type-2B (Homo sapiens) (UniProt Q13705); experiment: Selectivity interaction (Kinase panel (Invitrogen)) EUB0000639a ACVR2B; conditions: at 200 nM
# [10] = molecular target: T4, Protein-tyrosine kinase 6; experiment: Selectivity interaction (KinomeScan (DiscoverX)) EUB0000607a PTK6; conditions: at 10 µM
# [11] = molecular target: Tyrosine-protein kinase FRK (Homo sapiens) (UniProt P42685); experiment: Selectivity interaction (KinomeScan (DiscoverX)) EUB0001049a FRK; conditions: at 1 µM
# [12] = molecular target: Mitogen-activated protein kinase 10 (Homo sapiens, UniProt P53779); experiment: Selectivity interaction (Kinase panel (enzymatic assay)) EUB0000595a MAPK10
# [13] = molecular target: Tyrosine-protein kinase JAK1 (Homo sapiens, UniProt P23458); experiment: Selectivity interaction (Ambit KINOMEscan and KiNATiv profiling in Jurkat cells) EUB0000090b JAK1; format: cell-based; conditions: at 1 µM
# [14] = molecular target: Dual specificity tyrosine-phosphorylation-regulated kinase 1B (Homo sapiens, UniProt Q9Y463); experiment: Selectivity interaction (Ambit KINOMEscan and KiNATiv profiling in Jurkat cells) EUB0000090b DYRK1B; format: cell-based; conditions: at 1 µM
# Dual specificity tyrosine-phosphorylation-regulated kinase 1B, sequence (Q9Y463 whole entry, looked up): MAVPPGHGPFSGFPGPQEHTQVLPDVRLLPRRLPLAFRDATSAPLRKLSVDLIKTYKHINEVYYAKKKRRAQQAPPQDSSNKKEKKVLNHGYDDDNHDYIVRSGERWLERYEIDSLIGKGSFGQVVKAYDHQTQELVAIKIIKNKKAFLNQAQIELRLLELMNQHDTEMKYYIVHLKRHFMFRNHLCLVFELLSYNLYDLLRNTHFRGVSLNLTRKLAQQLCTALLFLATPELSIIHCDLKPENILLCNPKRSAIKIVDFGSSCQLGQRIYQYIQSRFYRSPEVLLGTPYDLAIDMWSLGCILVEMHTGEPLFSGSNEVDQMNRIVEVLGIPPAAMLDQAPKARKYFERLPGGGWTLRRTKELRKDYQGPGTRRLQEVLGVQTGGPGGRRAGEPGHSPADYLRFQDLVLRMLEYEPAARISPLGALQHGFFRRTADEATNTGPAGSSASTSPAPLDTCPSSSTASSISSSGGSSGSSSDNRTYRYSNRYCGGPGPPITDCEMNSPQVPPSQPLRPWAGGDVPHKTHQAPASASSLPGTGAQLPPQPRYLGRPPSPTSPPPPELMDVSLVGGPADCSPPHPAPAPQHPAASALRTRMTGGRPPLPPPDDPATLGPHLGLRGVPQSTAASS
# T4 sequence (Q13882 whole entry, looked up): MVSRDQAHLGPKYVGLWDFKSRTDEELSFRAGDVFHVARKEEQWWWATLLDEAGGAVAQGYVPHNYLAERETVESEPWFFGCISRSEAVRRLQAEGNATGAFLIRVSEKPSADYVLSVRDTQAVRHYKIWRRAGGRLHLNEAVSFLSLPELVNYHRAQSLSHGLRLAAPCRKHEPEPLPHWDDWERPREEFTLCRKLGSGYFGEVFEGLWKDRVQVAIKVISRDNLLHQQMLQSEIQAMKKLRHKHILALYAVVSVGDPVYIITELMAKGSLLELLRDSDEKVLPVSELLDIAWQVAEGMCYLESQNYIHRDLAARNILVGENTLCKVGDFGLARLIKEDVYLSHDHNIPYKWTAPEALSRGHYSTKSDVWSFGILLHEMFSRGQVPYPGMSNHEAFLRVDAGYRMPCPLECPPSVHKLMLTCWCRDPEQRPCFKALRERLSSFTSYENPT
# Mitogen-activated protein kinase 10, sequence (P53779 whole entry): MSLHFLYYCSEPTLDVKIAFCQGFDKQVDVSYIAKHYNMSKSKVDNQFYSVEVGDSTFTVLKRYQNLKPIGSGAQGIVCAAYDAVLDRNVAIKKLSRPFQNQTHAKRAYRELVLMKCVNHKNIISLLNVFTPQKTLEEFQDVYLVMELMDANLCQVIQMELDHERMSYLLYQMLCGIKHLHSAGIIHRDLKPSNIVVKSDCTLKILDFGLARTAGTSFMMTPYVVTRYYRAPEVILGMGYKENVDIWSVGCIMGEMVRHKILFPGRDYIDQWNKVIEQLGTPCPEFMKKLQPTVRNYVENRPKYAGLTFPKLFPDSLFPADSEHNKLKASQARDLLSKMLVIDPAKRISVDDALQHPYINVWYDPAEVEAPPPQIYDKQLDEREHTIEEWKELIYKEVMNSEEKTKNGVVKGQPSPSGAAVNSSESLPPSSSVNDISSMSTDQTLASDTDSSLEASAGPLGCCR
# Activin receptor type-2B (Homo sapiens), sequence (Q13705 whole entry): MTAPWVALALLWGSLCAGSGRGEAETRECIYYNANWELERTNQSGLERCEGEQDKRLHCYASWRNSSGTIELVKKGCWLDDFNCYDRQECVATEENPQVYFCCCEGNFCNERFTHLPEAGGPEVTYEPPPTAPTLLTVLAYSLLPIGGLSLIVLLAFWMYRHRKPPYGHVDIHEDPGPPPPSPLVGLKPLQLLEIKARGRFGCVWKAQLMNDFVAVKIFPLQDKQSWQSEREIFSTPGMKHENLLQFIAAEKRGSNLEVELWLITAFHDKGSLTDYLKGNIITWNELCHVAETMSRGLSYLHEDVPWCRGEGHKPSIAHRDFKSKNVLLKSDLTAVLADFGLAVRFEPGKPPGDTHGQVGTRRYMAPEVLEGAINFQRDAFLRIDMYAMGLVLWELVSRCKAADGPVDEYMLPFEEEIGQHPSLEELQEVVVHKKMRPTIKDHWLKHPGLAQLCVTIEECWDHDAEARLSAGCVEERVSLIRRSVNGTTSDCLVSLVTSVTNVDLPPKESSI
# Tyrosine-protein kinase JAK1, sequence (P23458 whole entry): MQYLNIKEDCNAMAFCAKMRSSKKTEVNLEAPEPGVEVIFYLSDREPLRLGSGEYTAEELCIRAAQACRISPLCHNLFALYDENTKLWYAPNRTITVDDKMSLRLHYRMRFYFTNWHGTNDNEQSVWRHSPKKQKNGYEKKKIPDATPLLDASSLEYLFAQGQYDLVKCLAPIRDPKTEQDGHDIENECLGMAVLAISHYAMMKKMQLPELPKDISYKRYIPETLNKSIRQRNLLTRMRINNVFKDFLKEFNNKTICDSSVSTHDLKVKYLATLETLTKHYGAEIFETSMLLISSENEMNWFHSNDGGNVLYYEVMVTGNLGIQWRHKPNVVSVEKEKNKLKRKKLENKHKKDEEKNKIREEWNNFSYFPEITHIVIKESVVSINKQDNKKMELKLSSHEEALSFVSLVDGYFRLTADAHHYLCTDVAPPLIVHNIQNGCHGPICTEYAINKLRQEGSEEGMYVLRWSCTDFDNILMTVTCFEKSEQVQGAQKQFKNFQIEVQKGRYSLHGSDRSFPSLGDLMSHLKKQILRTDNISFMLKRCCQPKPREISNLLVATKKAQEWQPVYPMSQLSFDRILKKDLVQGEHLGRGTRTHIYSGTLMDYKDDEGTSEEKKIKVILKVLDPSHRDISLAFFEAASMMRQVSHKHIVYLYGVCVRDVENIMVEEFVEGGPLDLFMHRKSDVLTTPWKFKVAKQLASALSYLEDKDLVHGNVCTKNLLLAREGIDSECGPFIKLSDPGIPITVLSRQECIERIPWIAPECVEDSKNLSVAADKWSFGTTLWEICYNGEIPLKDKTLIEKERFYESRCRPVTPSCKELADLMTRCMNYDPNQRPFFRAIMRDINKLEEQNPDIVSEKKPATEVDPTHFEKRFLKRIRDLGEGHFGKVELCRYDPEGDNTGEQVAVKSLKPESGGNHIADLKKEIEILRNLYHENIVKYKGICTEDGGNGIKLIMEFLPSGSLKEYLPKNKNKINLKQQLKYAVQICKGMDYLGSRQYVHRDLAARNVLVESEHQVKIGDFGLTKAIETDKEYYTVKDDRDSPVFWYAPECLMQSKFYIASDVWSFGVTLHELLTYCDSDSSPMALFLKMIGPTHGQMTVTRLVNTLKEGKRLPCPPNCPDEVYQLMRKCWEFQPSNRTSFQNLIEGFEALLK
# Mitogen-activated protein kinase kinase kinase kinase 5 (Homo sapiens), sequence (Q9Y4K4 whole entry, looked up): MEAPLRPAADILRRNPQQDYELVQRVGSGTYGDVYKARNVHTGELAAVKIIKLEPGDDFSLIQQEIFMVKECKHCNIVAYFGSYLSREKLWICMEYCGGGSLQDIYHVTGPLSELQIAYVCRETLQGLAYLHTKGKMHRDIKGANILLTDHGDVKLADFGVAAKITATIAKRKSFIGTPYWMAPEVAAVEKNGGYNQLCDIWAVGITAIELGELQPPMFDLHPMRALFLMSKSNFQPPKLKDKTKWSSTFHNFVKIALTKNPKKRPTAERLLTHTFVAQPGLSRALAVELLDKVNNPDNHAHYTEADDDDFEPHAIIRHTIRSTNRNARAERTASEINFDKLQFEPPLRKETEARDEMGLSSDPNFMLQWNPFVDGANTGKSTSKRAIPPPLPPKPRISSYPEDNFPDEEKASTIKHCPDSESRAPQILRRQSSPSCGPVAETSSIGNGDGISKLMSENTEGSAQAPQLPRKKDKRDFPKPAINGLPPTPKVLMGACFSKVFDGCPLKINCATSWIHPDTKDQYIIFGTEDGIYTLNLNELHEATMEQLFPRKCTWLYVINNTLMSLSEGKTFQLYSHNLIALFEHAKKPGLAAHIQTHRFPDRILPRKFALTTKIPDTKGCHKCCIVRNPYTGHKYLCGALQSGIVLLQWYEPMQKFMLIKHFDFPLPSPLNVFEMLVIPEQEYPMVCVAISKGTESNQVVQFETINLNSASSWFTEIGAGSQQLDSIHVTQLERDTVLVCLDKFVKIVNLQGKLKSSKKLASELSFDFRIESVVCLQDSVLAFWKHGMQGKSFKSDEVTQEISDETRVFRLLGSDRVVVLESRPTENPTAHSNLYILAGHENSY
# Tyrosine-protein kinase FRK (Homo sapiens), sequence (P42685 whole entry): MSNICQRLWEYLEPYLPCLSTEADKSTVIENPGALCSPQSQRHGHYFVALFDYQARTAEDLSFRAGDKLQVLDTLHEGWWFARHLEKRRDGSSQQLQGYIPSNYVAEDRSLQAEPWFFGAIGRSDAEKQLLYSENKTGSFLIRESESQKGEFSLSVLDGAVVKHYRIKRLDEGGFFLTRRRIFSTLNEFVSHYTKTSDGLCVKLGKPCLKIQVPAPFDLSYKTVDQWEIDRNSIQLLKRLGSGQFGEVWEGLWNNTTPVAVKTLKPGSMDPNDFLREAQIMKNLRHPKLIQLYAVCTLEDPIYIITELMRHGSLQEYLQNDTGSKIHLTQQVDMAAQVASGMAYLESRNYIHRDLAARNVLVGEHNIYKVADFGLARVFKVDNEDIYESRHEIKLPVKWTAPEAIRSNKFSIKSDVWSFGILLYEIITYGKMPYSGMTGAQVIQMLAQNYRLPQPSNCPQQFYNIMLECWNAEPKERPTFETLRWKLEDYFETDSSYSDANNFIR
smiles,measurement,setting,value
CC(C)(O)[C@H](F)CN1Cc2cc(NC(=O)c3cnn4cccnc34)c(N3CCOCC3)cc2C1=O,dTM,[1],1.9 K
COc1cc(N(C)c2ccnc3ccc(C(F)(F)F)cc23)cc(OC)c1OC,% binding,[2],72%
same,% binding,[3],86%
CN(C)CCOc1ccc(-c2nc(-c3ccncc3)c(-c3ccc4c(c3)CC/C4=N\O)[nH]2)cc1,% of control,[4],97%
C=CC(=O)Nc1ccc(C(=O)Nc2[nH]nc3c2CN(C(=O)N[C@H](CN(C)C)c2ccccc2)C3(C)C)cc1,% of engagement,[5],1.3%
O=C(NOC[C@H](O)CO)c1ccc(F)c(F)c1Nc1ccc(I)cc1F,% of control,[6],100%
Cn1cc(-n2cnc3c(NCc4nc5cc(Cl)c(Cl)cc5[nH]4)nc(N4CCOCC4)nc32)cn1,% of control,[7],-8.04%
CC[C@@H]1[C@H](F)C(=O)N[C@@H]1COc1nccc2cc(C(N)=O)c(OC)cc12 [ZIMLOVISERTIB],% of inhibition,[8],-1.08%
same,% of inhibition,[9],5.32%
CNC(=O)Nc1ccc(-c2nc(N3CC4CCC(C3)O4)c3cnn(C4CCC5(CC4)OCCO5)c3n2)cc1,% of control,[10],55%
COc1cc(Nc2nc(C)cc(-c3cnn4nc(OC)ccc34)n2)cc(C(F)(F)F)c1,% of control,[11],100%
COCC(=O)NC/C=C/c1ccc2ncnc(Nc3ccc(Oc4ccc(C)nc4)c(C)c3)c2c1 [CP-724714],IC50,[12],> 10 µM
CN(C)C/C=C/C(=O)Nc1ccc(C(=O)N2CCCC(Nc3ncc(Cl)c(-c4c[nH]c5ccccc45)n3)C2)cc1 (centres undefined),% of control,[13],86%
same,% of control,[14],6.1%
